This assay relates to BDF1 mice, P388 leukemia ip, median survival T/C. The experiment in a line: NCI In Vivo Anticancer Drug Screen. Data for tumor model P388 Leukemia (intraperitoneal) in B6D2F1 (BDF1) mice. To be noted: endpoint: median survival time, higher = longer survival. The procedure, abridged: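 Antitumour effect was judged in vivo: survival in drug-treated mice, normalised to that of vehicle-dosed controls, gives the reported T/C.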

[1] abbreviates: dose: 100.0 mg/kg/injection, schedule: Q04DX003 (ip), vehicle: Klucel (hydroxypropylcellulose) (HPC).
The mark [2] stands for this setting: dose: 200.0 mg/kg/injection, schedule: Q04DX003 (ip), vehicle: Klucel (hydroxypropylcellulose) (HPC).
The mark [3] stands for this setting: dose: 100.0 mg/kg/injection, schedule: Q01DX009 (ip), vehicle: saline with Tween-80.

“And” between values parts separate entries of the source, which are not always exact repeats. Equal entries are not always repeated. Toxic doses and inconclusive results are not listed.

For `CC1=CCC2C(=O)C=CC(=O)C2C1` (stereo not drawn), the T/C by setting is: (dose: 0.57 mg/kg/injection, schedule: Q01DX009 (ip), vehicle: Klucel (hydroxypropylcellulose) (HPC)) 120 % of control; (dose: 0.85 mg/kg/injection, schedule: Q01DX009 (ip), vehicle: Klucel (hydroxypropylcellulose) (HPC)) 115 % of control; (dose: 2.0 mg/kg/injection, schedule: Q01DX009 (ip), vehicle: Klucel (hydroxypropylcellulose) (HPC)) 118 % of control; (dose: 3.12 mg/kg/injection, schedule: Q04DX003 (ip), vehicle: Klucel (hydroxypropylcellulose) (HPC)) 100 % of control; (dose: 4.12 mg/kg/injection, schedule: Q01DX009 (ip), vehicle: Klucel (hydroxypropylcellulose) (HPC)) 109 % of control and 110 % of control; (dose: 5.0 mg/kg/injection, schedule: Q04DX003 (ip), vehicle: Klucel (hydroxypropylcellulose) (HPC)) 104 % of control. Besides, the T/C reads like this: (dose: 6.25 mg/kg/injection, schedule: Q01DX009 (ip), vehicle: Klucel (hydroxypropylcellulose) (HPC)) 95 % of control and 120 % of control; (dose: 6.25 mg/kg/injection, schedule: Q04DX003 (ip), vehicle: Klucel (hydroxypropylcellulose) (HPC)) 109 % of control; (dose: 9.37 mg/kg/injection, schedule: Q01DX009 (ip), vehicle: Klucel (hydroxypropylcellulose) (HPC)) 104 % of control and 115 % of control; (dose: 10.0 mg/kg/injection, schedule: Q04DX003 (ip), vehicle: Klucel (hydroxypropylcellulose) (HPC)) 109 % of control; (dose: 12.5 mg/kg/injection, schedule: Q01DX009 (ip), vehicle: Klucel (hydroxypropylcellulose) (HPC)) 90 % of control; (dose: 12.5 mg/kg/injection, schedule: Q04DX003 (ip), vehicle: Klucel (hydroxypropylcellulose) (HPC)) 90 % of control. Moreover, the T/C (dose: 18.0 mg/kg/injection, schedule: Q01DX009 (ip), vehicle: Klucel (hydroxypropylcellulose) (HPC)) was 113 % of control.

Consider `CC(C(N)C(=O)O)C(O)c1ccc(O)cn1` (stereo not drawn), for which the T/C is, setting by setting: (dose: 45.0 mg/kg/injection, schedule: Q01DX009 (ip), vehicle: water) 109 % of control; (dose: 90.0 mg/kg/injection, schedule: Q01DX009 (ip), vehicle: water) 102 % of control; (dose: 180.0 mg/kg/injection, schedule: Q01DX009 (ip), vehicle: water) 102 % of control.

Turning to `O=C1C(N2CCOCC2)=C(N2CC2)C(=O)C(N2CCOCC2)=C1N1CC1`, the T/C (dose: 1.5 mg/kg/injection, schedule: Q01DX009 (ip), vehicle: saline) was 105 % of control; the T/C (dose: 3.0 mg/kg/injection, schedule: Q01DX009 (ip), vehicle: saline) is 94 % of control; the T/C (dose: 6.0 mg/kg/injection, schedule: Q01DX009 (ip), vehicle: saline) is 94 % of control.

Take `c1ccc(N2CCCCCN2c2ccccc2)cc1`: the T/C (dose: 50.0 mg/kg/injection, schedule: Q01DX001 (ip), vehicle: saline with Tween-80) is 92 % of control; the T/C (dose: 100.0 mg/kg/injection, schedule: Q01DX001 (ip), vehicle: saline with Tween-80) was 90 % of control; the T/C (dose: 200.0 mg/kg/injection, schedule: Q01DX001 (ip), vehicle: saline with Tween-80) is 90 % of control.

Regarding `CCCCCCCCCCCCC1CC(=O)OC1=O` (stereo not drawn), the T/C reads like this: (dose: 75.0 mg/kg/injection, schedule: Q01DX009 (ip), vehicle: Klucel (hydroxypropylcellulose) (HPC)) 90 % of control; under setting [1], 104 % of control; (dose: 100.0 mg/kg/injection, schedule: Q04DX003 (ip), vehicle: saline) 108 % of control; (dose: 150.0 mg/kg/injection, schedule: Q01DX009 (ip), vehicle: Klucel (hydroxypropylcellulose) (HPC)) 90 % of control; under setting [2], 109 % of control; (dose: 300.0 mg/kg/injection, schedule: Q01DX009 (ip), vehicle: Klucel (hydroxypropylcellulose) (HPC)) 109 % of control. For the same compound, the T/C reads like this: (dose: 400.0 mg/kg/injection, schedule: Q04DX003 (ip), vehicle: Klucel (hydroxypropylcellulose) (HPC)) 100 % of control; (dose: 400.0 mg/kg/injection, schedule: Q04DX003 (ip), vehicle: saline) 120 % of control.

For `CS(=O)(=NC(=S)Nc1ccccc1)c1ccccc1` (stereo not drawn), the T/C (dose: 75.0 mg/kg/injection, schedule: Q01DX001 (ip), vehicle: other) is 115 % of control; the T/C (dose: 150.0 mg/kg/injection, schedule: Q01DX001 (ip), vehicle: other) is 95 % of control; the T/C (dose: 300.0 mg/kg/injection, schedule: Q01DX001 (ip), vehicle: other) was 100 % of control.

`Cc1ccc(N)c(Br)c1`: the T/C is, setting by setting: (dose: 25.0 mg/kg/injection, schedule: Q01DX009 (ip), vehicle: saline with Tween-80) 100 % of control; (dose: 50.0 mg/kg/injection, schedule: Q01DX009 (ip), vehicle: saline with Tween-80) 109 % of control; under setting [3], 118 % of control.

For the compound `O=[N+]([O-])c1[nH]cnc1Br`, the T/C (dose: 25.0 mg/kg/injection, schedule: Q01DX009 (ip), vehicle: Klucel (hydroxypropylcellulose) (HPC)) was 93 % of control; the T/C (dose: 50.0 mg/kg/injection, schedule: Q01DX009 (ip), vehicle: Klucel (hydroxypropylcellulose) (HPC)) was 96 % of control; the T/C (dose: 100.0 mg/kg/injection, schedule: Q01DX009 (ip), vehicle: Klucel (hydroxypropylcellulose) (HPC)) is 96 % of control; the T/C (dose: 200.0 mg/kg/injection, schedule: Q01DX009 (ip), vehicle: Klucel (hydroxypropylcellulose) (HPC)) was 86 % of control.

Consider `CCC(=O)OCC(=O)[C@]1(O)Cc2c(O)c3c(c(O)c2[C@@H](OC2CC(N)C(O)C(C)O2)C1)C(=O)c1c(OC)cccc1C3=O` (stereo partly drawn), for which the T/C is 170 % of control (dose: 0.12 mg/kg/injection, schedule: Q01DX009 (ip), vehicle: saline); 201 % of control (dose: 0.25 mg/kg/injection, schedule: Q01DX009 (ip), vehicle: saline); 219 % of control (dose: 0.5 mg/kg/injection, schedule: Q01DX009 (ip), vehicle: saline); 186 % of control (dose: 1.0 mg/kg/injection, schedule: Q01DX009 (ip), vehicle: saline); 241 % of control (dose: 2.0 mg/kg/injection, schedule: Q01DX009 (ip), vehicle: saline); 102 % of control (dose: 7.5 micrograms/kg/injection, schedule: Q01DX009 (ip), vehicle: saline). For the same compound, the T/C runs as follows: (dose: 15.0 micrograms/kg/injection, schedule: Q01DX009 (ip), vehicle: saline) 107 % of control; (dose: 30.0 micrograms/kg/injection, schedule: Q01DX009 (ip), vehicle: saline) 118 % of control; (dose: 60.0 micrograms/kg/injection, schedule: Q01DX009 (ip), vehicle: saline) 170 % of control.

Regarding `CC(=O)Nc1ccc([N+](=O)[O-])c(NC(C)=O)n1`, the T/C was 110 % of control (dose: 50.0 mg/kg/injection, schedule: Q04DX003 (ip), vehicle: Klucel (hydroxypropylcellulose) (HPC)); 105 % of control under setting [1]; 100 % of control under setting [2].

On to `CCOC(=O)CC(COC)C(C(=O)OCC)C(=O)OCC` (stereo not drawn), for which the T/C (dose: 25.0 mg/kg/injection, schedule: Q01DX009 (ip), vehicle: other) was 95 % of control; the T/C (dose: 50.0 mg/kg/injection, schedule: Q01DX009 (ip), vehicle: other) is 121 % of control; the T/C (dose: 50.0 mg/kg/injection, schedule: Q04DX003 (ip), vehicle: other) was 122 % of control; the T/C (dose: 100.0 mg/kg/injection, schedule: Q01DX009 (ip), vehicle: other) was 92 % of control; the T/C (dose: 100.0 mg/kg/injection, schedule: Q04DX003 (ip), vehicle: other) was 122 % of control; the T/C (dose: 200.0 mg/kg/injection, schedule: Q01DX009 (ip), vehicle: other) is 100 % of control. The T/C (dose: 200.0 mg/kg/injection, schedule: Q04DX003 (ip), vehicle: other) is 122 % of control and the T/C (dose: 400.0 mg/kg/injection, schedule: Q04DX003 (ip), vehicle: other) was 100 % of control.

With `N=Cc1c(O)n(-c2ccccc2)c(=O)[nH]c1=O`, the T/C is 112 % of control under setting [3]; 100 % of control (dose: 200.0 mg/kg/injection, schedule: Q01DX009 (ip), vehicle: saline with Tween-80); 104 % of control (dose: 400.0 mg/kg/injection, schedule: Q01DX009 (ip), vehicle: saline with Tween-80).

On to `OCCNCc1ccccc1`, for which the T/C is 100 % of control (dose: 100.0 mg/kg/injection, schedule: Q04DX003 (ip), vehicle: water) and 113 % of control (dose: 400.0 mg/kg/injection, schedule: Q04DX003 (ip), vehicle: water).

Consider `O=C(COc1ccc(Cl)cc1)C1CSc2ccc3ccccc3c21` (stereo not drawn), for which the T/C (dose: 100.0 mg/kg/injection, schedule: Q04DX003 (ip), vehicle: saline sonified) is 95 % of control; the T/C (dose: 200.0 mg/kg/injection, schedule: Q04DX003 (ip), vehicle: saline sonified) is 90 % of control; the T/C (dose: 400.0 mg/kg/injection, schedule: Q04DX003 (ip), vehicle: saline sonified) is 95 % of control.

Source of the values: PubChem BioAssay AID328 (DTP/NCI, 2004).
